Columns and labels:
pigweed, palmer [1] = assay: Test C postemergence; assay type: in vivo, Amaranthus palmeri; conditions: 10 days
Summary of the method: (§1)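 Greenhouse herbicide screen, 10-day duration. Test chemicals in solvent/surfactant blend were sprayed onto soil at sowing (pre) or onto 2–10 cm seedlings at one to two leaves (post); injury scored visually against controls, 0 no effect to 100 complete control.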

kochia [2] = assay: Test C preemergence; assay type: in vivo, Bassia scoparia; conditions: for Kochia plant response rating: preemergence, 0 to 100 scale (0 no effect, 100 complete control)
Summary of the method: as §1

pigweed, palmer [3] = assay: Test C preemergence; assay type: in vivo, Amaranthus palmeri; conditions: for Pigweed, Palmer plant response rating: preemergence, 0 to 100 scale (0 no effect, 100 complete control)
Summary of the method: as §1

soybean [4] = assay: Test C postemergence; assay type: in vivo, Glycine max; conditions: 10 days
Summary of the method: as §1

ducksalad = assay: Test D flooded paddy test; assay type: in vivo, Heteranthera limosa; conditions: 250 g ai/ha, applied to paddy water, visual rating after 13 to 14 days, scale 0 to 100 (0 no effect, 100 complete control)
Protocol: (§2) Plant species in the flooded paddy test selected from barnyardgrass (Echinochloa crus-galli), ducksalad (Heteranthera limosa), rice (Oryza sativa), and sedge, umbrella (small-flower umbrella sedge, Cyperus difformis) were grown to the 2-leaf stage for testing. At time of treatment, test pots were flooded to 3 cm above the soil surface, treated by application of test compounds directly to the paddy water, and then maintained at that water depth for the duration of the test. Treated plants and controls were maintained in a greenhouse for 13 to 14 days, after which time all species were compared to controls and visually evaluated. Plant response ratings, summarized in Table D, are based on a scale of 0 to 100 where 0 is no effect and 100 is complete control. A dash (-) response means no test result.

ryegrass, Italian [5] = assay: Test C preemergence; assay type: in vivo, Lolium multiflorum; conditions: for Ryegrass, Italian plant response rating: preemergence, 0 to 100 scale (0 no effect, 100 complete control)
Summary of the method: as §1

corn [6] = assay: Test C postemergence; assay type: in vivo, Zea mays; conditions: 10 days
Summary of the method: as §1

horseweed = assay: Test C postemergence; assay type: in vivo, Erigeron canadensis; conditions: 10 days
Summary of the method: as §1

sedge, umbrella = assay: Test D flooded paddy test; assay type: in vivo, Cyperus difformis; conditions: 250 g ai/ha, applied to paddy water, visual rating after 13 to 14 days, scale 0 to 100 (0 no effect, 100 complete control)
Protocol: as §2

barnyardgrass [7] = assay: Test D flooded paddy test; assay type: in vivo, Echinochloa crus-galli; conditions: 250 g ai/ha, applied to paddy water, visual rating after 13 to 14 days, scale 0 to 100 (0 no effect, 100 complete control)
Protocol: as §2

wheat [8] = assay: Test C postemergence; assay type: in vivo, Triticum aestivum; conditions: 10 days
Summary of the method: as §1

blackgrass [9] = assay: Test C postemergence; assay type: in vivo, Alopecurus myosuroides; conditions: 10 days
Summary of the method: as §1

ragweed [10] = assay: Test C preemergence; assay type: in vivo, Ambrosia artemisiifolia; conditions: for Ragweed plant response rating: preemergence, 0 to 100 scale (0 no effect, 100 complete control)
Summary of the method: as §1

corn [11] = assay: Test C preemergence; assay type: in vivo, Zea mays; conditions: for Corn plant response rating: preemergence, 0 to 100 scale (0 no effect, 100 complete control)
Summary of the method: as §1

green foxtail [12] = assay: Test C preemergence; assay type: in vivo, Setaria viridis; conditions: for Foxtail, Green plant response rating: preemergence, 0 to 100 scale (0 no effect, 100 complete control)
Summary of the method: as §1

galium = assay: Test C postemergence; assay type: in vivo, Galium aparine; conditions: 10 days
Summary of the method: as §1

kochia [13] = assay: Test C postemergence; assay type: in vivo, Bassia scoparia; conditions: 10 days
Summary of the method: as §1

soybean [14] = assay: Test C preemergence; assay type: in vivo, Glycine max; conditions: for Soybean plant response rating: preemergence, 0 to 100 scale (0 no effect, 100 complete control)
Summary of the method: as §1

blackgrass [15] = assay: Test C preemergence; assay type: in vivo, Alopecurus myosuroides; conditions: for Blackgrass plant response rating: preemergence, 0 to 100 scale (0 no effect, 100 complete control)
Summary of the method: as §1

oat, wild [16] = assay: Test C preemergence; assay type: in vivo, Avena fatua; conditions: for Oat, Wild plant response rating: preemergence, 0 to 100 scale (0 no effect, 100 complete control)
Summary of the method: as §1

wheat [17] = assay: Test C preemergence; assay type: in vivo, Triticum aestivum; conditions: for Wheat plant response rating: preemergence, 0 to 100 scale (0 no effect, 100 complete control)
Summary of the method: as §1

ryegrass, Italian [18] = assay: Test C postemergence; assay type: in vivo, Lolium multiflorum; conditions: 10 days
Summary of the method: as §1

oat, wild [19] = assay: Test C postemergence; assay type: in vivo, Avena fatua; conditions: 10 days
Summary of the method: as §1

barnyardgrass [20] = assay: Test C postemergence; assay type: in vivo, Echinochloa crusgalli; conditions: 10 days
Summary of the method: as §1

barnyardgrass [21] = assay: Test C preemergence; assay type: in vivo, Echinochloa crusgalli; conditions: for Barnyardgrass plant response rating: preemergence, 0 to 100 scale (0 no effect, 100 complete control)
Summary of the method: as §1

ragweed [22] = assay: Test C postemergence; assay type: in vivo, Ambrosia artemisiifolia; conditions: 10 days
Summary of the method: as §1

green foxtail [23] = assay: Test C postemergence; assay type: in vivo, Setaria viridis; conditions: 10 days, 0 to 100 scale (0 no effect, 100 complete control)
Summary of the method: as §1

rice = assay: Test D flooded paddy test; assay type: in vivo, Oryza sativa; conditions: 250 g ai/ha, applied to paddy water, visual rating after 13 to 14 days, scale 0 to 100 (0 no effect, 100 complete control)
Protocol: as §2

[24] = 125 g ai/ha, postemergence, 0 to 100 scale, 0 no effect, 100 complete control
[25] = 500 g ai/ha, postemergence, 0 to 100 scale (0 no effect, 100 complete control)
[26] = Postemergence, 125 g ai/ha, 0 to 100 scale (0 no effect, 100 complete control)
[27] = Preemergence, 125 g ai/ha, 0 to 100 scale, 0 no effect, 100 complete control

SMILES: COC[C@H]1CN(C(=O)c2cc(-n3cnc(C(C)(C)C)n3)ccc2OC)c2cccc(Cl)c2O1 [Compound 230]
- Plant response rating, Pigweed, Palmer (pigweed, palmer [1]; [24]): 100
- Kochia plant response rating (kochia [2]; Test C, 125 g ai/ha): 0
- Pigweed, Palmer plant response rating (pigweed, palmer [3]; Test C, 125 g ai/ha): 100
- Plant response rating, Soybean (soybean [4]; [24]): 100
- Plant response rating, Ducksalad (Flood) (ducksalad): 70
- Ryegrass, Italian plant response rating (ryegrass, Italian [5]; Test C, 125 g ai/ha): 80
- Plant response rating, Corn (corn [6]; [24]): 60
- Plant response rating, Horseweed (horseweed; [24]): 40
- Plant response rating, Sedge, Umbrella (Flood) (sedge, umbrella): 98
- Plant response rating, Barnyardgrass (Flood) (barnyardgrass [7]): 15
- Plant response rating, Wheat (wheat [8]; [24]): 40
- Plant response rating, Blackgrass (blackgrass [9]; [24]): 40
- Ragweed plant response rating (ragweed [10]; Test C, 125 g ai/ha): 60
- Corn plant response rating (corn [11]; Test C, 125 g ai/ha): 20
- Foxtail, Green plant response rating (green foxtail [12]; Test C, 125 g ai/ha): 100
- Plant response rating, Galium (galium; [24]): 100
- Plant response rating, Kochia (kochia [13]; [24]): 90
- Soybean plant response rating (soybean [14]; Test C, 125 g ai/ha): 90
- Blackgrass plant response rating (blackgrass [15]; Test C, 125 g ai/ha): 70
- Oat, Wild plant response rating (oat, wild [16]; Test C, 125 g ai/ha): 50
- Wheat plant response rating (wheat [17]; Test C, 125 g ai/ha): 30
- Plant response rating, Ryegrass, Italian (ryegrass, Italian [18]; [24]): 60
- Plant response rating, Oat, Wild (oat, wild [19]; [24]): 20
- Plant response rating, Barnyardgrass (barnyardgrass [20]; [24]): 60
- Barnyardgrass plant response rating (barnyardgrass [21]; Test C, 125 g ai/ha): 60
- Plant response rating, Ragweed (ragweed [22]; [24]): 90

SMILES: CC(C)c1ncn(-c2ccc(S(C)(=O)=O)c(C(=O)N3C[C@H](C)Oc4c(Cl)cccc43)c2)n1 [Compound 393]
- Plant response rating, Pigweed, Palmer (pigweed, palmer [1]; [25]): 90
- Plant response rating, Pigweed, Palmer (pigweed, palmer [1]; [26]): 60
- Kochia plant response rating (kochia [2]; 500 g ai/ha): 90
- Plant response rating, Kochia (kochia [2]; [27]): 80
- Pigweed, Palmer plant response rating (pigweed, palmer [3]; 500 g ai/ha): 100
- Plant response rating, Pigweed, Palmer (pigweed, palmer [3]; [27]): 80
- Plant response rating, Soybean (soybean [4]; [25]): 100
- Plant response rating, Soybean (soybean [4]; [26]): 70
- Ryegrass, Italian plant response rating (ryegrass, Italian [5]; 500 g ai/ha): 90
- Plant response rating, Ryegrass, Italian (ryegrass, Italian [5]; [27]): 0
- Plant response rating, Corn (corn [6]; [25]): 50
- Plant response rating, Corn (corn [6]; [26]): 20
- Plant response rating, Horseweed (horseweed; [25]): 20
- Plant response rating, Horseweed (horseweed; [26]): 0
- Plant response rating, Wheat (wheat [8]; [25]): 20
- Plant response rating, Wheat (wheat [8]; [26]): 10
- Plant response rating, Blackgrass (blackgrass [9]; [25]): 0
- Plant response rating, Blackgrass (blackgrass [9]; [26]): 0
- Ragweed plant response rating (ragweed [10]; 500 g ai/ha): 0
- Plant response rating, Ragweed (ragweed [10]; [27]): 0
- Corn plant response rating (corn [11]; 500 g ai/ha): 20
- Plant response rating, Corn (corn [11]; [27]): 0
- Foxtail, Green plant response rating (green foxtail [12]; 500 g ai/ha): 100
- Plant response rating, Foxtail, Green (green foxtail [12]; [27]): 80
- Plant response rating, Galium (galium; [25]): 100
- Plant response rating, Galium (galium; [26]): 70
- Plant response rating, Kochia (kochia [13]; [25]): 90
- Plant response rating, Kochia (kochia [13]; [26]): 70
- Soybean plant response rating (soybean [14]; 500 g ai/ha): 40
- Plant response rating, Soybean (soybean [14]; [27]): 20
- Blackgrass plant response rating (blackgrass [15]; 500 g ai/ha): 20
- Plant response rating, Blackgrass (blackgrass [15]; [27]): 20
- Oat, Wild plant response rating (oat, wild [16]; 500 g ai/ha): 40
- Plant response rating, Oat, Wild (oat, wild [16]; [27]): 0
- Wheat plant response rating (wheat [17]; 500 g ai/ha): 30
- Plant response rating, Wheat (wheat [17]; [27]): 0
- Plant response rating, Ryegrass, Italian (ryegrass, Italian [18]; [25]): 80
- Plant response rating, Ryegrass, Italian (ryegrass, Italian [18]; [26]): 10
- Plant response rating, Oat, Wild (oat, wild [19]; [25]): 40
- Plant response rating, Oat, Wild (oat, wild [19]; [26]): 0
- Plant response rating, Barnyardgrass (barnyardgrass [20]; [25]): 50
- Plant response rating, Barnyardgrass (barnyardgrass [20]; [26]): 30
- Plant response rating, Foxtail, Green (green foxtail [23]; 500 g ai/ha, postemergence): 70
- Plant response rating, Foxtail, Green (green foxtail [23]; Postemergence, 125 g ai/ha): 10
- Barnyardgrass plant response rating (barnyardgrass [21]; 500 g ai/ha): 70
- Plant response rating, Barnyardgrass (barnyardgrass [21]; [27]): 40
- Plant response rating, Ragweed (ragweed [22]; [25]): 70
- Plant response rating, Ragweed (ragweed [22]; [26]): 60

SMILES: COC(=O)N(C)c1ncn(-c2cccc(C(=O)N3C[C@H](C)Oc4c(C)cccc43)c2)n1 [Compound 300]
- Plant response rating, Ducksalad (Flood) (ducksalad): 0
- Plant response rating, Sedge, Umbrella (Flood) (sedge, umbrella): 0
- Plant response rating, Barnyardgrass (Flood) (barnyardgrass [7]): 0
- Plant response rating, Rice (Flood) (rice): 0

— US20260262643A1, “HERBICIDAL BENZOXAZINES” (FMC CORPORATION, priority 2022, published 2026)
